{"source": "patent US20060246141A1", "about": "“Nanoparticulate lipase inhibitor formulations” (Elan Pharma International, Limited, priority 2005, published 2006)", "origin": "cited, not measured here", "key": {"[1]": {"conditions": "physiological pH range"}, "[2]": {"tested_on": "gastric and pancreatic lipases", "conditions": "recommended therapeutic dose of 120 mg three times a day"}}, "note": "Read-outs that look alike come from different tables or passages of the source.", "data": [{"smiles": "CCCCCCCCCCCC(CC1OC(=O)[C@H]1CCCCCC)OC(=O)C(CC(C)C)NC=O", "note": "(stereo in doubt) [Orlistat, (S)-2-formylamino-4-methyl-pentanoic acid (S)-1-[[(2S, 3S)-3-hexyl-4-oxo-2-oxetanyl]methyl]-dodecyl ester]", "values": [{"measurement": "Solubility", "setting": "in chloroform", "result": "freely soluble"}, {"measurement": "Solubility", "setting": "in methanol and ethanol", "result": "very soluble"}, {"measurement": "Solubility", "setting": "in water", "result": "practically insoluble"}, {"measurement": "pKa", "setting": "[1]", "result": "no pKa within the physiological pH range"}, {"measurement": "Inhibition of dietary fat absorption", "setting": "[2]", "result": "approximately 30%"}]}]}
